Experimental data published in patent US11413278B2, “Compounds and methods for promoting stress resistance” (priority 2015, dated 2022).
Like-named read-outs stand apart in the source and are kept apart here.

Assays:
C. elegans = C. elegans lifespan assays (liquid and plate); format: in vivo, Caenorhabditis elegans; details: for ILS at 60 µM / ILS at 66 µM: Caenorhabditis elegans; for O = Life span- extending scores in worms: score scale 0 to 2, 4 to 6 independent trials; for M = Lifespan-extending scores in worms: summary score
FOXO3 = FOXO3 siRNA knockdown: dependency for H2O2-resistance; format: cell-based, human
Procedure: For qPCR analysis, WI-38 cells were treated with small molecules (at 10 μM) (biological quadruplicates) for 24 hrs and processed for RNA isolation and reverse transcription (RT) with the Cells-to-Ct Kit (Life Technologies), following manufacturer's instructions. RT products were diluted with H2O and used for qPCR analysis on an ABI 7300 system (Life Technologies) (technical triplicates). Relative expression levels of target genes were normalized to the genes B2M, PPIA and GAPDH. To knock down the expression of FOXO3 or NRF2, WI-38 cells were transfected, using the RNAiMAX reagents (Life Technologies), with siRNA oligos (at 10 nM final concentration, 10 ml culture medium) for FOXO3 (Life Technologies) or NRF2 (Integrated DNA Technologies) on 10-cm petri dishes for 36 hrs, and then detached and aliquoted onto 96-well (for qPCR analysis) or 384-well plates (for H2O2-stress treatment). ˜24 hrs later, small molecules were introduced and incubated with cells for 24 hrs. Cells were then either processed with the Cells-to-Ct Kit to prepare RT products for qPCR analysis or subjected to H2O2 (700 μM) for 3 hrs and assayed for viability. The knockdown efficiency of FOXO3 or NRF2 was checked at 36 hrs post-transfection and at the end as well. […]
Applicants used siRNA to knock down FOXO3 expression by ˜70% in an attempt to identify whether the activation of these genes depends on activity of FOXO3 and/or NRF2. […] We used siRNA to knock down FOXO3 expression by ˜60% to 70% (FIG. 3; see data in Table 6). […] (Given the caveat that FOXO3 was not fully knocked down, partial dependency was scored when the H2O2-resistance capacity was reduced by at least 25% but less than 50% upon siRNA knockdown). At least for Gr-7A and Gr-7C, which are structurally related, the observed FOXO3-dependency for H2O2-resistance is consistent with their strong effects to induce FOXO3 target genes (Tables 1a-1f, Table 6, & Table 15), including SOD2 and GADD45A.

[1] = in liquid, wild type, with FuDR, 1.0 × 10^9 bacteria/ml, read-out: relative change of mean lifespan vs control, Trial 1
[2] = in liquid, wild type, with FuDR, 2.5 × 10^9 bacteria/ml, read-out: relative change of mean lifespan vs control, Trial 2
[3] = on plate, CF512 temperature-sensitive sterile animals, without FuDR, 2.0 × 10^10 bacteria/ml, read-out: relative change of mean lifespan vs control, Trial 3
[4] = Assay 2(z), 1.0 × 10^9 bacteria/ml, wild type + FuDR (2012 July), read-out: Lifespan assay in liquid
[5] = Assay 3(aa), 2.5 × 10^9 bacteria/ml, wild type + FuDR, read-out: Lifespan assay in liquid
[6] = Assay 4(ab), 2.0 × 10^10 bacteria/ml, CF512 worms, no FuDR, read-out: Lifespan assay on plates

In the case of `O=C(Nc1cc(C(F)(F)F)ccc1Cl)c1ccc([N+](=O)[O-])o1` [Gr-1B], the ILS at 60 µM (C. elegans; [1]) is reported as 12.9%, the ILS at 60 µM (C. elegans; [2]) is reported as 8% and the ILS at 60 µM (C. elegans; [3]) is reported as 15.1%. For the same molecule, the ILS at 66 µM (C. elegans; [4]) was 12.9%, the ILS at 66 µM (C. elegans; [5]) was 8% and the ILS at 66 µM (C. elegans; [6]) was 15.1%. The “O = Life span- extending scores in worms” value (C. elegans) was 1 (1 for lifespan extension observed in 2 trials), the “M = Lifespan-extending scores in worms” value (C. elegans) was 1 (1 for lifespan extension observed in 2 trials) and the “I = FOXO3-dependency for H2O2-resistance” value (FOXO3; score) was 0. The “I = FOXO3-dependency for H2O2-resistance” value (FOXO3; summary score) was 0.
`CCc1ccccc1NC(=O)c1ccc([N+](=O)[O-])o1` [Gr-1C] was tested, and the ILS at 60 µM (C. elegans; [1]) was 14.4%, the ILS at 60 µM (C. elegans; [2]) was 1.7% and the ILS at 60 µM (C. elegans; [3]) was 14.7%. It also gave an ILS at 66 µM (C. elegans; [4]) of 14.4%, an ILS at 66 µM (C. elegans; [5]) of 1.7% and an ILS at 66 µM (C. elegans; [6]) of 14.7%. The “O = Life span- extending scores in worms” value (C. elegans) was 1 (1 for lifespan extension observed in 2 trials), the “M = Lifespan-extending scores in worms” value (C. elegans) was 1 (1 for lifespan extension observed in 2 trials) and the “I = FOXO3-dependency for H2O2-resistance” value (FOXO3; score) was 0. The “I = FOXO3-dependency for H2O2-resistance” value (FOXO3; summary score) was 0.
In the case of `O=C(Nc1cccc(Cl)c1)c1ccc([N+](=O)[O-])o1` [Gr-1D], the ILS at 60 µM (C. elegans; [1]) is reported as 18.2%, the ILS at 60 µM (C. elegans; [2]) is reported as -0.5% and the ILS at 60 µM (C. elegans; [3]) is reported as 10.5%. For the same molecule, the ILS at 66 µM (C. elegans; [4]) was 18.2%, the ILS at 66 µM (C. elegans; [5]) was -0.5% and the ILS at 66 µM (C. elegans; [6]) was 10.5%. The “O = Life span- extending scores in worms” value (C. elegans) was 1 (1 for lifespan extension observed in 2 trials), the “M = Lifespan-extending scores in worms” value (C. elegans) was 1 (1 for lifespan extension observed in 2 trials) and the “I = FOXO3-dependency for H2O2-resistance” value (FOXO3; score) was 0. For the same molecule, the “I = FOXO3-dependency for H2O2-resistance” value (FOXO3; summary score) was 0.
`O=C(Nc1cccc(C(F)(F)F)c1)c1ccc([N+](=O)[O-])o1` [Gr-1E] showed an ILS at 60 µM (C. elegans; [1]) of 17.4%, an ILS at 60 µM (C. elegans; [2]) of 6.3% and an ILS at 60 µM (C. elegans; [3]) of 13.8%. It also gave an ILS at 66 µM (C. elegans; [4]) of 17.4%, an ILS at 66 µM (C. elegans; [5]) of 6.3% and an ILS at 66 µM (C. elegans; [6]) of 13.8%. For the same molecule, the “Extension of C. elegans' lifespan (qualitative)” value (C. elegans; in at least 3 to 4 trials, group range ~10% to ~50%) was “could extend animal's lifespan”, the “O = Life span- extending scores in worms” value (C. elegans) was 2 (2 for observed in more than 2 trials) and the “M = Lifespan-extending scores in worms” value (C. elegans) was 2 (2 for observed in more than 2 trials). For the same molecule, the “I = FOXO3-dependency for H2O2-resistance” value (FOXO3; score) was 0 and the “I = FOXO3-dependency for H2O2-resistance” value (FOXO3; summary score) was 0.
With `O=C(Nc1ccc(Cl)c(Cl)c1)c1ccc([N+](=O)[O-])o1` [Gr-1G] the ILS at 60 µM (C. elegans; [1]) was 1.3%, the ILS at 60 µM (C. elegans; [2]) was 10.2% and the ILS at 60 µM (C. elegans; on plate, CF512 temperature-sensitive sterile animals, without FuDR, 1.0 × 10^11 bacteria/ml, read-out: relative change of mean lifespan vs control, Trial 4) was 5.8%. For the same molecule, the ILS at 60 µM (C. elegans; [3]) was 24.7%, the ILS at 66 µM (C. elegans; [4]) was 1.3% and the ILS at 66 µM (C. elegans; [5]) was 10.2%. For the same molecule, the ILS at 66 µM (C. elegans; [6]) was 24.7%, the ILS at 66 µM (C. elegans; Assay 5(ac), 1.0 × 10^11 bacteria/ml, CF512 worms, no FuDR, read-out: Lifespan assay on plates) was 5.8% and the “O = Life span- extending scores in worms” value (C. elegans) was 1 (1 for lifespan extension observed in 2 trials). For the same molecule, the “M = Lifespan-extending scores in worms” value (C. elegans) was 1 (1 for lifespan extension observed in 2 trials), the “I = FOXO3-dependency for H2O2-resistance” value (FOXO3; score) was 0 and the “I = FOXO3-dependency for H2O2-resistance” value (FOXO3; summary score) was 0.
For `COc1ccc(C(=O)/C=C/c2ccc(F)cc2)c(OC)c1` [Gr-4A], the ILS at 60 µM (C. elegans; [1]) was -21.4%, the ILS at 60 µM (C. elegans; [2]) was 1.2% and the ILS at 60 µM (C. elegans; [3]) was -0.1%. For the same molecule, the ILS at 66 µM (C. elegans; [4]) was -21.4%, the ILS at 66 µM (C. elegans; [5]) was 1.2% and the ILS at 66 µM (C. elegans; [6]) was -0.1%. The “O = Life span- extending scores in worms” value (C. elegans) was 0, the “M = Lifespan-extending scores in worms” value (C. elegans) was 0 and the “I = FOXO3-dependency for H2O2-resistance” value (FOXO3; score) was 0. For the same molecule, the “I = FOXO3-dependency for H2O2-resistance” value (FOXO3; summary score) was 0.
For `COc1ccc(C(=O)/C=C/c2ccccc2Br)c(OC)c1` [Gr-4B], the ILS at 60 µM (C. elegans; [1]) was 8.1%, the ILS at 60 µM (C. elegans; [2]) was 14.5% and the ILS at 60 µM (C. elegans; [3]) was 10.7%. The ILS at 66 µM (C. elegans; [4]) was 8.1%, the ILS at 66 µM (C. elegans; [5]) was 14.5% and the ILS at 66 µM (C. elegans; [6]) was 10.7%. The “O = Life span- extending scores in worms” value (C. elegans) was 1 (1 for lifespan extension observed in 2 trials), the “M = Lifespan-extending scores in worms” value (C. elegans) was 1 (1 for lifespan extension observed in 2 trials) and the “I = FOXO3-dependency for H2O2-resistance” value (FOXO3; score) was 0. For the same molecule, the “I = FOXO3-dependency for H2O2-resistance” value (FOXO3; summary score) was 0.
